# From PubChem BioAssay AID272 (DTP/NCI, 2004)
# Values joined by “and” are separate entries in the source; they are usually repeats but may differ in a detail not shown here. Equal values may be shown once. Records with an inconclusive call do not appear.
# Tested on: Lewis lung carcinoma i.m., BDF1 mice, T/C %
# Test: NCI In Vivo Anticancer Drug Screen. Data for tumor model Lewis Lung Carcinoma (intramuscular) in B6D2F1 (BDF1) mice
# Outline: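 Compound given to mice with transplantable tumours; survival or tumour size compared against the vehicle control group, reported as T divided by C.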
# [1] = endpoint: median survival time, dose: 1.0 mg/kg/injection, schedule: Q01DX011 (ip), vehicle: saline, higher = longer survival
# [2] = endpoint: median survival time, dose: 2.0 mg/kg/injection, schedule: Q01DX011 (ip), vehicle: saline, higher = longer survival
# [3] = endpoint: median survival time, dose: 4.0 mg/kg/injection, schedule: Q01DX011 (ip), vehicle: saline, higher = longer survival
# [4] = endpoint: median survival time, dose: 8.0 mg/kg/injection, schedule: Q01DX011 (ip), vehicle: saline, higher = longer survival
structure (smiles),measurement,setting,value
CC/C(=C(/CC)c1ccc(O)cc1)c1ccc(O)cc1,T/C,"endpoint: mean tumor weight, dose: 25.0 mg/kg/injection, schedule: Q01DX011 (ip), vehicle: steriod suspending solution, higher = larger tumour",43 % of control
same,T/C,"endpoint: mean tumor weight, dose: 50.0 mg/kg/injection, schedule: Q01DX011 (ip), vehicle: steriod suspending solution, higher = larger tumour",29 % of control
same,T/C,"endpoint: mean tumor weight, dose: 100.0 mg/kg/injection, schedule: Q01DX011 (ip), vehicle: steriod suspending solution, higher = larger tumour",14 % of control and 34 % of control
same,T/C,"endpoint: median survival time, dose: 25.0 mg/kg/injection, schedule: Q01DX011 (ip), vehicle: steriod suspending solution, higher = longer survival",86 % of control
same,T/C,"endpoint: median survival time, dose: 25.0 mg/kg/injection, schedule: Q01DX011 (ip), vehicle: water, higher = longer survival",91 % of control and 97 % of control
same,T/C,"endpoint: median survival time, dose: 50.0 mg/kg/injection, schedule: Q01DX011 (ip), vehicle: steriod suspending solution, higher = longer survival",106 % of control
same,T/C,"endpoint: median survival time, dose: 50.0 mg/kg/injection, schedule: Q01DX011 (ip), vehicle: water, higher = longer survival",92 % of control
same,T/C,"endpoint: median survival time, dose: 100.0 mg/kg/injection, schedule: Q01DX011 (ip), vehicle: steriod suspending solution, higher = longer survival",104 % of control
same,T/C,"endpoint: median survival time, dose: 100.0 mg/kg/injection, schedule: Q01DX011 (ip), vehicle: water, higher = longer survival",97 % of control and 101 % of control
COC(=O)C1Cc2cncn2C(=O)N1 (stereo unspecified),T/C,"endpoint: median survival time, dose: 4.0 mg/kg/injection, schedule: Q01DX009 (ip), vehicle: water, higher = longer survival",113 % of control
same,T/C,"endpoint: median survival time, dose: 8.0 mg/kg/injection, schedule: Q01DX009 (ip), vehicle: water, higher = longer survival",108 % of control
same,T/C,"endpoint: median survival time, dose: 16.0 mg/kg/injection, schedule: Q01DX009 (ip), vehicle: water, higher = longer survival",104 % of control
same,T/C,"endpoint: median survival time, dose: 32.0 mg/kg/injection, schedule: Q01DX009 (ip), vehicle: water, higher = longer survival",103 % of control
same,T/C,"endpoint: median survival time, dose: 64.0 mg/kg/injection, schedule: Q01DX009 (ip), vehicle: water, higher = longer survival",98 % of control
Cc1cccc2cc3c(ccc4ccccc43)c[n+]12,T/C,"endpoint: mean tumor weight (est.), dose: 1.0 mg/kg/injection, schedule: Q01DX011 (ip), vehicle: saline, higher = larger tumour",91 % of control
same,T/C,"endpoint: mean tumor weight (est.), dose: 2.0 mg/kg/injection, schedule: Q01DX011 (ip), vehicle: saline, higher = larger tumour",87 % of control
same,T/C,"endpoint: mean tumor weight (est.), dose: 4.0 mg/kg/injection, schedule: Q01DX011 (ip), vehicle: saline, higher = larger tumour",83 % of control
same,T/C,"endpoint: mean tumor weight (est.), dose: 8.0 mg/kg/injection, schedule: Q01DX011 (ip), vehicle: saline, higher = larger tumour",46 % of control
same,T/C,[1],98 % of control
same,T/C,[2],101 % of control
same,T/C,[3],98 % of control
same,T/C,[4],121 % of control
Cc1nc(N)nc(N)c1-c1ccc(Cl)c(Cl)c1,T/C,"endpoint: mean tumor weight, dose: 6.0 mg/kg/injection, schedule: Q04DX004 (ip), vehicle: saline, higher = larger tumour",180 % of control
same,T/C,"endpoint: median survival time, dose: 4.0 mg/kg/injection, schedule: Q04DX004 (ip), vehicle: saline, higher = longer survival",100 % of control
same,T/C,"endpoint: median survival time, dose: 8.0 mg/kg/injection, schedule: Q04DX004 (ip), vehicle: saline, higher = longer survival",116 % of control
CC1=C2C(=C[C@@](C)(CO)[C@@H]2O)C(=O)[C@](C)(O)C12CC2,T/C,"endpoint: mean tumor weight, dose: 0.1 mg/kg/injection, schedule: Q01DX011 (ip), vehicle: other, higher = larger tumour",89 % of control
same,T/C,"endpoint: mean tumor weight, dose: 0.2 mg/kg/injection, schedule: Q01DX011 (ip), vehicle: other, higher = larger tumour",65 % of control
same,T/C,"endpoint: mean tumor weight, dose: 0.4 mg/kg/injection, schedule: Q01DX011 (ip), vehicle: other, higher = larger tumour",58 % of control
CC(=O)c1ccc(Oc2ccc(/C(C)=N\N=C(N)N)cc2)cc1,T/C,"endpoint: mean tumor weight (est.), dose: 12.5 mg/kg/injection, schedule: Q01DX011 (ip), vehicle: saline with Tween-80, higher = larger tumour",66 % of control
same,T/C,"endpoint: mean tumor weight (est.), dose: 25.0 mg/kg/injection, schedule: Q01DX011 (ip), vehicle: saline with Tween-80, higher = larger tumour",74 % of control
same,T/C,"endpoint: median survival time, dose: 12.5 mg/kg/injection, schedule: Q01DX011 (ip), vehicle: saline with Tween-80, higher = longer survival",91 % of control
CC(=O)NC(CS)C(=O)O (stereo unspecified),T/C,"endpoint: mean tumor weight (est.), dose: 750.0 mg/kg/injection, schedule: Q01DX009 (ip), vehicle: saline, higher = larger tumour",91 % of control
same,T/C,"endpoint: mean tumor weight (est.), dose: 1500.0 mg/kg/injection, schedule: Q01DX009 (ip), vehicle: saline, higher = larger tumour",86 % of control
Oc1c(Cl)cc(Cl)c2cccnc12,T/C,"endpoint: mean tumor weight, dose: 6.25 mg/kg/injection, schedule: Q01DX011 (ip), vehicle: saline with Tween-80, higher = larger tumour",60 % of control
same,T/C,"endpoint: mean tumor weight, dose: 12.5 mg/kg/injection, schedule: Q01DX011 (ip), vehicle: saline with Tween-80, higher = larger tumour",19 % of control
same,T/C,"endpoint: median survival time, dose: 6.25 mg/kg/injection, schedule: Q01DX011 (ip), vehicle: saline with Tween-80, higher = longer survival",122 % of control
Nc1ncc(N)c(N)n1,T/C,"endpoint: mean tumor weight (est.), dose: 40.0 mg/kg/injection, schedule: Q01DX011 (ip), vehicle: saline, higher = larger tumour",80 % of control
same,T/C,"endpoint: mean tumor weight (est.), dose: 80.0 mg/kg/injection, schedule: Q01DX011 (ip), vehicle: saline, higher = larger tumour",88 % of control
same,T/C,"endpoint: mean tumor weight (est.), dose: 160.0 mg/kg/injection, schedule: Q01DX011 (ip), vehicle: saline, higher = larger tumour",119 % of control
same,T/C,"endpoint: median survival time, dose: 40.0 mg/kg/injection, schedule: Q01DX011 (ip), vehicle: saline, higher = longer survival",103 % of control
same,T/C,"endpoint: median survival time, dose: 80.0 mg/kg/injection, schedule: Q01DX011 (ip), vehicle: saline, higher = longer survival",98 % of control
same,T/C,"endpoint: median survival time, dose: 160.0 mg/kg/injection, schedule: Q01DX011 (ip), vehicle: saline, higher = longer survival",94 % of control
CCN(CCO)CCNc1ccc(C)c2sc3ccccc3c(=O)c12,T/C,"endpoint: mean tumor weight (est.), dose: 21.0 mg/kg/injection, schedule: Q01DX011 (ip), vehicle: saline, higher = larger tumour",69 % of control
same,T/C,"endpoint: mean tumor weight (est.), dose: 42.0 mg/kg/injection, schedule: Q01DX011 (ip), vehicle: saline, higher = larger tumour",44 % of control
same,T/C,"endpoint: median survival time, dose: 21.0 mg/kg/injection, schedule: Q01DX011 (ip), vehicle: saline, higher = longer survival",104 % of control
same,T/C,"endpoint: median survival time, dose: 42.0 mg/kg/injection, schedule: Q01DX011 (ip), vehicle: saline, higher = longer survival",110 % of control
O=C(O)CCCc1ccc(N(CCCl)CCCl)cc1,T/C,"endpoint: mean tumor weight, dose: 2.5 mg/kg/injection, schedule: Q01DX011 (ip), vehicle: carboxymethylcellulose (CMC), higher = larger tumour",92 % of control
same,T/C,"endpoint: mean tumor weight, dose: 5.0 mg/kg/injection, schedule: Q01DX011 (ip), vehicle: carboxymethylcellulose (CMC), higher = larger tumour",56 % of control
same,T/C,"endpoint: mean tumor weight, dose: 10.0 mg/kg/injection, schedule: Q01DX011 (ip), vehicle: carboxymethylcellulose (CMC), higher = larger tumour",56 % of control
same,T/C,"endpoint: median survival time, dose: 0.5 mg/kg/injection, schedule: Q01DX011 (ip), vehicle: saline, higher = longer survival",98 % of control and 101 % of control
same,T/C,[1],91 % of control and 92 % of control
same,T/C,[2],92 % of control and 110 % of control
same,T/C,"endpoint: median survival time, dose: 2.5 mg/kg/injection, schedule: Q01DX011 (ip), vehicle: carboxymethylcellulose (CMC), higher = longer survival",95 % of control
same,T/C,[3],97 % of control and 118 % of control
same,T/C,"endpoint: median survival time, dose: 5.0 mg/kg/injection, schedule: Q01DX011 (ip), vehicle: carboxymethylcellulose (CMC), higher = longer survival",122 % of control
same,T/C,[4],88 % of control and 105 % of control
same,T/C,"endpoint: median survival time, dose: 10.0 mg/kg/injection, schedule: Q01DX011 (ip), vehicle: carboxymethylcellulose (CMC), higher = longer survival",108 % of control
O=NN(CCCl)C(=O)Nc1ccc(CCCl)cc1,T/C,"endpoint: median survival time, dose: 3.0 mg/kg/injection, schedule: Q07DX003 (ip), vehicle: Klucel (hydroxypropylcellulose) (HPC), higher = longer survival",110 % of control
same,T/C,"endpoint: median survival time, dose: 5.0 mg/kg/injection, schedule: Q07DX003 (ip), vehicle: Klucel (hydroxypropylcellulose) (HPC), higher = longer survival",116 % of control
same,T/C,"endpoint: median survival time, dose: 8.4 mg/kg/injection, schedule: Q07DX003 (ip), vehicle: Klucel (hydroxypropylcellulose) (HPC), higher = longer survival",108 % of control
same,T/C,"endpoint: median survival time, dose: 14.0 mg/kg/injection, schedule: Q07DX003 (ip), vehicle: Klucel (hydroxypropylcellulose) (HPC), higher = longer survival",116 % of control
same,T/C,"endpoint: median survival time, dose: 23.0 mg/kg/injection, schedule: Q07DX003 (ip), vehicle: Klucel (hydroxypropylcellulose) (HPC), higher = longer survival",95 % of control
COc1cc(OC)c(OC)cc1/C=C\c1ccnc2ccccc12,T/C,"endpoint: mean tumor weight (est.), dose: 50.0 mg/kg/injection, schedule: Q01DX011 (ip), vehicle: saline with Tween-80, higher = larger tumour",60 % of control
same,T/C,"endpoint: mean tumor weight (est.), dose: 100.0 mg/kg/injection, schedule: Q01DX011 (ip), vehicle: saline with Tween-80, higher = larger tumour",51 % of control
same,T/C,"endpoint: mean tumor weight (est.), dose: 200.0 mg/kg/injection, schedule: Q01DX011 (ip), vehicle: saline with Tween-80, higher = larger tumour",56 % of control
same,T/C,"endpoint: mean tumor weight (est.), dose: 400.0 mg/kg/injection, schedule: Q01DX011 (ip), vehicle: saline with Tween-80, higher = larger tumour",34 % of control
same,T/C,"endpoint: median survival time, dose: 50.0 mg/kg/injection, schedule: Q01DX011 (ip), vehicle: saline with Tween-80, higher = longer survival",105 % of control
same,T/C,"endpoint: median survival time, dose: 100.0 mg/kg/injection, schedule: Q01DX011 (ip), vehicle: saline with Tween-80, higher = longer survival",103 % of control
same,T/C,"endpoint: median survival time, dose: 200.0 mg/kg/injection, schedule: Q01DX011 (ip), vehicle: saline with Tween-80, higher = longer survival",86 % of control
same,T/C,"endpoint: median survival time, dose: 400.0 mg/kg/injection, schedule: Q01DX011 (ip), vehicle: saline with Tween-80, higher = longer survival",100 % of control
O=C1C=C(SCCO)C(=O)c2ccccc21,T/C,"endpoint: mean tumor weight (est.), dose: 0.75 mg/kg/injection, schedule: Q01DX011 (ip), vehicle: other, higher = larger tumour",52 % of control
same,T/C,"endpoint: mean tumor weight (est.), dose: 1.5 mg/kg/injection, schedule: Q01DX011 (ip), vehicle: other, higher = larger tumour",40 % of control
same,T/C,"endpoint: mean tumor weight (est.), dose: 3.0 mg/kg/injection, schedule: Q01DX011 (ip), vehicle: other, higher = larger tumour",18 % of control
same,T/C,"endpoint: median survival time, dose: 0.75 mg/kg/injection, schedule: Q01DX011 (ip), vehicle: other, higher = longer survival",100 % of control
same,T/C,"endpoint: median survival time, dose: 1.5 mg/kg/injection, schedule: Q01DX011 (ip), vehicle: other, higher = longer survival",92 % of control
same,T/C,"endpoint: median survival time, dose: 3.0 mg/kg/injection, schedule: Q01DX011 (ip), vehicle: other, higher = longer survival",100 % of control
